The record followed here is publication PMC9696794, “Synthesis and Antimicrobial Activity of Short Analogues of the Marine Antimicrobial Peptide Turgencin A: Effects of SAR Optimizations, Cys-Cys Cyclization and Lipopeptide Modifications” (International Journal of Molecular Sciences, 2022).

For assay [1], the system named is E. coli K12. The assay is described as follows: Bacterial biosensor viability assay (lux operon luminescence). The format is cell-based, Escherichia coli. The conditions noted are these: E. coli K12, within 3 min. The source says:
(§1) Changes in light emission of sensor bacteria constitutively expressing the bacterial lux operon or a eukaryotic luciferase can be used as a proxy for viability and membrane integrity, respectively. Light production of the viability biosensors represents metabolic activity of the bacteria. For the membrane integrity assay on the other hand, light production depends on the influx of the externally added D-luciferin, which at neural pH will not readily pass the intact plasma membrane. An initial increase in light production therefore corresponds with damage to the plasma membrane and a concomitant influx of D-luciferin, while a subsequent drop in light emission indicates diminishing ATP reserves of the dying sensor bacteria.
(§2) Bacterial viability, based on light production by constitutively expressed bacterial luciferase, was measured in real time according to the method described by Hansen et al.. The assay was performed using B. subtilis 168 with chromosomally integrated luxABCDE operon and E. coli K12 carrying the plasmid pCGLS-11 containing the luxCDABE operon. […] No D-luciferin was added to the cell suspension. Each assay was performed at least three times independently, and the figures show a representative dataset.

Assay [2] has as its system E. coli K12. The assay is described as follows: Bacterial biosensor membrane integrity assay (luciferase, D-luciferin influx). The format is cell-based, Escherichia coli.
Source text: as §1
(§3) A membrane integrity assay was performed using two bacterial biosensors, B. subtilis 168 (ATCC 23857) and E. coli K12 (ATCC MC1061). Both strains carry the pCSS962 plasmid that contains a eukaryotic luciferase gene (lucGR), which originate from the click beetle Pyrophorus plagiophthalamus. The assay was performed as described previously. […] D-luciferin potassium salt (Synchem Inc., Elk Grove Village, IL, USA) was added to the cell suspension at a final concentration of 1 mM. Two-fold dilutions (final assay concentration of 50–1.56 µg/mL) of peptides dissolved in Milli-Q water were prepared and added (10 µL per well) to black round-bottom 96-well microtiter plates (Nunc). Milli-Q water served as a negative control used for the normalization purpose and CHX, having known membranolytic activity, was used as a positive control. The plates were loaded into a Synergy H1 Hybrid Reader and the background luminescence was monitored before aliquots (90 µL) of the cell suspension with D-luciferin were added, one well at the time, by an automatic injector. Light emission was recorded every second for 3 min. Each study was performed at least three times independently, and the figures show a representative dataset.

The test system of another assay is E. coli (ATCC 25922). Briefly: Bacterial killing experiment (CFU count after MIC assay). In kind it is cell-based, Escherichia coli. Here is the method:
(§4) A killing experiment was performed on selected lipopeptides by using actively growing cultures of S. aureus (ATCC 9144) and E. coli (ATCC 25922). The procedure was performed as previously described. […] The number of colony-forming units (CFU) was determined after 24 h of incubation at 37 °C. The tests were performed in triplicate.

Assay [3] relates to B. subtilis 168. Briefly: Bacterial biosensor membrane integrity assay (luciferase, D-luciferin influx). In kind it is cell-based, Bacillus subtilis. The conditions noted are these: for time of membranolytic action (luminescence peak not detectable): B. subtilis 168, 25 µg/mL and 50 µg/mL.
Source text: as §1, §3

In another assay the test system is S. aureus (ATCC 9144). Briefly: Bacterial killing experiment (CFU count after MIC assay). In kind it is cell-based, Staphylococcus aureus. Here is the method:
as §4

Assay [4] relates to B. subtilis 168. Briefly: Bacterial biosensor viability assay (lux operon luminescence). The note with it: B. subtilis 168, increasing concentrations, within 3 min. The format is cell-based, Bacillus subtilis.
Source text: as §1, §2

[5] abbreviates: at half-MIC, compared to growth control.

Structures are written as SMILES. Where a SMILES comes first, the peptide text is derived from it. Bridges are numbered along the chain shown (N, C = ends). The star is where a group is joined. Lauroyl = CCCCCCCCCCCC(=O)*; Octanoyl = CCCCCCCC(=O)*

On to `CCCCCCCC(=O)N[C@H]1CSSC[C@@H](C(=O)N[C@@H](CCCCN)C(=O)N[C@@H](CC(C)C)C(N)=O)NC(=O)[C@H](CCCCN)NC(=O)[C@H](Cc2c[nH]c3ccccc23)NC(=O)CNC(=O)[C@H](Cc2c[nH]c3ccccc23)NC(=O)[C@H](Cc2c[nH]c3ccccc23)NC(=O)[C@H](CCCCN)NC(=O)[C@H](CCCCN)NC(=O)CNC1=O` [Peptide C8-cTurg-2, C8- (CGKKWWGWKC)KL-NH2] (Octanoyl-CGKKWWGWKCKL-NH2; disulfide 1-10), for which the “effect on viability (light emission)” value was “gradual, dose-dependent reduction in viability” in the assay on E. coli K12 [1] and “dose-dependent effect on viability” in the assay on B. subtilis 168 [4]. Besides, the “effect in membrane integrity assay” value with E. coli K12 [2] (E. coli K12, 50 µg/mL) is listed as “even further delayed rise in peak luminescence”. Moreover, the “colony-forming units (CFU) after treatment” value in the assay on E. coli (ATCC 25922) (at MIC (or above), 24 h) was “No CFU were observed”; in the assay on E. coli (ATCC 25922) (setting [5]), “slightly less colony-forming units (CFU) were formed”; in the assay on S. aureus (ATCC 9144) (at MIC (or above), 24 h), “No CFU were observed”; with S. aureus (ATCC 9144) (setting [5]) it was “slightly less colony-forming units (CFU) were formed”. Also, in the assay on B. subtilis 168 [3], the “time of membranolytic action (luminescence peak not detectable)” value is listed as under 3 s.

Turning to `CCCCCCCCCCCC(=O)N[C@H]1CSSC[C@@H](C(=O)N[C@@H](CCCCN)C(=O)N[C@@H](CC(C)C)C(N)=O)NC(=O)[C@H](CCCCN)NC(=O)[C@H](Cc2c[nH]c3ccccc23)NC(=O)CNC(=O)CNC(=O)[C@@H]2CCCN2C(=O)[C@H](CCCCN)NC(=O)[C@H](CCCCN)NC(=O)CNC1=O` [Peptide C12-cTurg-1, C12 -(CGKKPGGWKC)KL-NH2] (Lauroyl-CGKKPGGWKCKL-NH2; disulfide 1-10), the “effect on viability (light emission)” value in the assay with E. coli K12 [1] was “gradual, dose-dependent reduction in viability”; in the assay on B. subtilis 168 [4] it was “dose-dependent effect on viability”. In addition, the “effect in membrane integrity assay” value is “further delayed response” in the assay on E. coli K12 [2] (E. coli K12, 25 µg/mL) and “no effect” in the assay on E. coli K12 [2] (E. coli K12, concentrations lower than 25 µg/mL). In addition, the “rise in luminescence in membrane integrity assay” value in the assay with E. coli K12 [2] (E. coli K12, 50 µg/mL, delayed compared to chlorhexidine) is 3.5 fold. The “colony-forming units (CFU) after treatment” value was “No CFU were observed” with E. coli (ATCC 25922) (at MIC (or above), 24 h); “slightly less colony-forming units (CFU) were formed” in the assay on E. coli (ATCC 25922) (setting [5]); “No CFU were observed” in the assay on S. aureus (ATCC 9144) (at MIC (or above), 24 h); “slightly less colony-forming units (CFU) were formed” with S. aureus (ATCC 9144) (setting [5]). Also, the “time of membranolytic action (luminescence peak not detectable)” value in the assay on B. subtilis 168 [3] is given as under 3 s. The “effect on membrane integrity” value in the assay on B. subtilis 168 [3] (B. subtilis 168, within 3 min) was “rapid and strong membrane disruptive effect”.
